Experimental findings from PubChem BioAssay (NCI) are described below.

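1) Cells in 96-well plates. 2) Compound, 48 h, 5 concentrations. 3) Linear interpolation between surrounding doses. 4) Unreached endpoint = highest concentration. GI50: concentration for 50% inhibition of growth. TGI: concentration producing complete growth inhibition.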

Some test systems named below: A549 NSCLC; HCC-2998 colon; K-562 leukemia; LOX IMVI melanoma; NCI/ADR-RES ovarian; OVCAR-4 ovarian; SNB-19 CNS; SR leukemia; TK-10 renal; SK-MEL-2 melanoma.
Assay in all cases: DTP human tumour cell line panel, 48 h

As usually defined, the GI50 is the concentration that inhibits growth by half. In general, TGI refers to the concentration giving total growth inhibition. Take `O=C(c1nc2ccccc2[nH]1)C1C(c2cccc([N+](=O)[O-])c2)C2CC3CCCCC3N2[C@@]12C(=O)Nc1cc(Cl)ccc12` (stereo partly specified): the GI50 in the experiment on A549 NSCLC was 2.34 µM; with HCC-2998 colon, 1.88 µM; in the experiment with K-562 leukemia it was 2.6 µM; in the experiment with LOX IMVI melanoma, 1.55 µM; in the experiment with NCI/ADR-RES ovarian it was 2.51 µM; in the experiment with OVCAR-4 ovarian, 2.08 µM. For the same compound, the GI50 was 2.04 µM in the experiment on SNB-19 CNS, 2.23 µM in the experiment on SR leukemia and 2.12 µM in the experiment on TK-10 renal. For the same compound, the TGI was 6.88 µM in the experiment on A549 NSCLC; 3.83 µM in the experiment on HCC-2998 colon; over 100 µM with K-562 leukemia; 2.96 µM in the experiment with LOX IMVI melanoma; 8.18 µM with NCI/ADR-RES ovarian; 8.87 µM in the experiment on OVCAR-4 ovarian. Besides, the TGI came out at 6.43 µM with SNB-19 CNS, 9.25 µM in the experiment with SR leukemia and 4.91 µM with TK-10 renal.

With `CCOC(=O)Nc1ccc2nc(Sc3ccc(Cl)cc3)sc2c1`, the GI50 is 6.3 µM in the experiment on A549 NSCLC; 15.3 µM in the experiment on HCC-2998 colon; 0.423 µM in the experiment with K-562 leukemia; 4.45 µM in the experiment on LOX IMVI melanoma; 1.07 µM with NCI/ADR-RES ovarian; 20.7 µM in the experiment on OVCAR-4 ovarian. Besides, the GI50 was 2.56 µM in the experiment with SK-MEL-2 melanoma, 7.31 µM in the experiment with SNB-19 CNS, 0.358 µM with SR leukemia and 9.1 µM with TK-10 renal. Moreover, the TGI in the experiment on A549 NSCLC is over 100 µM; with HCC-2998 colon, over 71.4 µM; in the experiment on K-562 leukemia, over 100 µM; with LOX IMVI melanoma it was 25.3 µM; with NCI/ADR-RES ovarian it was 47.3 µM; in the experiment on OVCAR-4 ovarian, over 100 µM. In addition, the TGI with SK-MEL-2 melanoma is 26.4 µM; in the experiment with SNB-19 CNS it was over 100 µM; in the experiment on SR leukemia it was over 32.9 µM; in the experiment with TK-10 renal, 58.4 µM.

`CCn1c(-c2nonc2N)nc2c(C#CC(C)(C)O)ncc(OCC3CCNCC3)c21`: the GI50 in the experiment with A549 NSCLC was 10.7 µM; in the experiment with HCC-2998 colon, 11.4 µM; in the experiment on K-562 leukemia, over 25 µM; in the experiment with LOX IMVI melanoma, 7.04 µM; in the experiment on NCI/ADR-RES ovarian, 12.8 µM; in the experiment on OVCAR-4 ovarian, over 25 µM. For the same compound, the GI50 is 11.7 µM with SK-MEL-2 melanoma, 10.6 µM in the experiment on SNB-19 CNS, 8.08 µM in the experiment on SR leukemia and 8.28 µM in the experiment on TK-10 renal. Further, the TGI with A549 NSCLC, in the experiment with HCC-2998 colon, in the experiment on K-562 leukemia, with LOX IMVI melanoma, in the experiment on NCI/ADR-RES ovarian and in the experiment on OVCAR-4 ovarian was over 25 µM in each case. In addition, the TGI with SK-MEL-2 melanoma is over 25 µM; in the experiment with SNB-19 CNS, over 25 µM; in the experiment on SR leukemia it was 24.4 µM; with TK-10 renal it was over 25 µM.

Regarding `COC(=O)[C@@H](C)C[C@H](Cc1ccccc1)NC(=O)c1csc([C@@H](C[C@H](C(C)C)N(C)C(=O)[C@@H](NC(=O)CN(C)C)C2CC2)OC(C)=O)n1`, the GI50 was 0.24 µM in the experiment with A549 NSCLC; 0.0573 µM in the experiment with HCC-2998 colon; 0.00299 µM in the experiment on K-562 leukemia; 0.0301 µM in the experiment with LOX IMVI melanoma; 13.4 µM with NCI/ADR-RES ovarian; 1.16 µM with OVCAR-4 ovarian. Further, the GI50 in the experiment on SK-MEL-2 melanoma is 0.00701 µM; in the experiment with SNB-19 CNS it was 0.0862 µM; in the experiment with SR leukemia, 0.00165 µM; in the experiment with TK-10 renal, 0.659 µM. Moreover, the TGI in the experiment with A549 NSCLC, with HCC-2998 colon, in the experiment with K-562 leukemia, with LOX IMVI melanoma, in the experiment with NCI/ADR-RES ovarian and in the experiment on OVCAR-4 ovarian was over 16.5 µM throughout. Further, the TGI in the experiment on SK-MEL-2 melanoma is 0.149 µM; with SNB-19 CNS, over 16.5 µM; with SR leukemia it was over 16.5 µM; in the experiment on TK-10 renal it was over 16.5 µM.

Turning to `CC[C@@]1(O)C(=O)N(CCN(C)C)Cc2c1cc1n(c2=O)Cc2cc3ccccc3nc2-1`, the GI50 in the experiment with A549 NSCLC was 26 µM; in the experiment with HCC-2998 colon it was 39.7 µM; with K-562 leukemia it was over 41.7 µM; with LOX IMVI melanoma, 6.19 µM; with NCI/ADR-RES ovarian, 13.7 µM; with OVCAR-4 ovarian, 58.1 µM. Moreover, the GI50 is over 100 µM in the experiment on SK-MEL-2 melanoma, over 24.9 µM in the experiment on SNB-19 CNS, 6.24 µM in the experiment with SR leukemia and over 100 µM in the experiment on TK-10 renal. Also, the TGI in the experiment on A549 NSCLC was over 100 µM; in the experiment on HCC-2998 colon, over 100 µM; with K-562 leukemia, over 100 µM; with LOX IMVI melanoma it was over 50.7 µM; with NCI/ADR-RES ovarian, over 94.8 µM; in the experiment with OVCAR-4 ovarian, over 100 µM. Moreover, the TGI with SK-MEL-2 melanoma, in the experiment on SNB-19 CNS, in the experiment with SR leukemia and with TK-10 renal was over 100 µM throughout.

For `NC(=S)c1cn(C2OC(CO)C(O)C2O)c2ncnc(N)c12` (stereo unspecified), the 50% growth inhibitory concentration (GI50) in the experiment on A549 NSCLC was 0.266 µM; in the experiment with HCC-2998 colon it was 0.208 µM; with K-562 leukemia, 0.199 µM; in the experiment on LOX IMVI melanoma, 0.139 µM; in the experiment with NCI/ADR-RES ovarian, 0.192 µM; with OVCAR-4 ovarian it was 0.081 µM. Further, the GI50 is 0.175 µM in the experiment with SK-MEL-2 melanoma, 0.411 µM in the experiment with SNB-19 CNS, 0.0625 µM with SR leukemia and 0.185 µM in the experiment on TK-10 renal. Further, the TGI in the experiment with A549 NSCLC is over 100 µM; with HCC-2998 colon, 0.998 µM; with LOX IMVI melanoma it was 2.49 µM; in the experiment with NCI/ADR-RES ovarian it was 8.24 µM; in the experiment with OVCAR-4 ovarian it was 4.21 µM; with SK-MEL-2 melanoma, 0.605 µM. In addition, the TGI in the experiment with SNB-19 CNS was found to be 13.7 µM; in the experiment with TK-10 renal, 0.827 µM.

As to `CO[C@H]1/C=C/C=C/C=C/C[C@H](OC(=O)[C@@H](C)NC(=O)C2CCCCC2)[C@H](C)[C@@H](O)/C(C)=C\CCC2=CC(=O)C=C(NC(=O)C1)C2=O`, the GI50 in the experiment with A549 NSCLC is 0.188 µM; in the experiment on HCC-2998 colon it was 0.109 µM; with K-562 leukemia it was 0.177 µM; in the experiment on LOX IMVI melanoma it was 0.104 µM; with NCI/ADR-RES ovarian, 4 µM; with OVCAR-4 ovarian it was 0.225 µM. The GI50 was 0.131 µM in the experiment on SK-MEL-2 melanoma, 0.106 µM in the experiment on SNB-19 CNS, 0.0561 µM in the experiment with SR leukemia and 0.274 µM in the experiment with TK-10 renal. For the same compound, the TGI is 1.92 µM in the experiment with A549 NSCLC; 0.762 µM in the experiment on HCC-2998 colon; over 50 µM with K-562 leukemia; 0.547 µM with LOX IMVI melanoma; over 50 µM with NCI/ADR-RES ovarian; 2.84 µM in the experiment with OVCAR-4 ovarian. The TGI in the experiment on SK-MEL-2 melanoma is 0.715 µM; in the experiment on SNB-19 CNS, 0.563 µM; in the experiment with SR leukemia it was over 50 µM; in the experiment with TK-10 renal, 2.31 µM.
